Results published in US10183080B2, “Use of single dendritic wedge cell penetrating peptides to facilitate cellular delivery of nanoparticles and nanoparticles carrying cargos” (The Government of the United States of America, as …, priority 2016, dated 2019).
Where no end group is shown, it is not given here.

Experiments:
[1] = Dynamic light scattering of QD-peptide conjugates; assay type: physicochemical; conditions: DLS; 5 peptides/QD; 50 nM QD, 0.1×PBS pH 7.4, 25° C.
From the text: Dynamic Light Scattering (DLS) analysis was next undertaken to measure the QD-peptide conjugates hydrodynamic diameter (HD) and diffusion coefficients. Based on the values estimated above, assembly ratios of 5 peptides/QD were utilized during these measurements. The QD-(Arg9)1 conjugate's HD increases from the QD only value of 24.3±1 nm to ˜26.7±1.3 nm. HD values for the QD-(Arg9)2-8 conjugates are essentially the same within experimental error with an average value of 30.5±0.5 nm while the QD-(Arg9)16 increases to ˜33 nm. The diffusion coefficients follow the same trend but in an inverse manner from ˜17 to 13 μm^2/s. […] They support the notion that the peptides are attached via the His6 region to the QD surface and that the polyproline regions span through the PEG layer displaying the poly(Arg) motifs on the QD's surface through the surrounding PEG layer as intended in the synthetic design.
Dynamic light scattering (DLS) measurements were carried out using a ZetaSizer NanoSeries equipped with a HeNe laser source (λ=633 nm, Malvern Instruments Ltd, Worcestershire, UK) and analyzed using Dispersion Technology Software (DTS, Malvern Instruments Ltd). 50 nM concentration solutions of QDs were loaded into disposable cells, and data were collected at 25° C. All samples were prepared in 0.1×PBS buffer pH 7.4. For each sample, the autocorrelation function was the average of five runs of 10 s each and then repeated from three to six times. CONTIN analysis was used to determine the number versus hydrodynamic size profiles for the dispersions studied.

COS-1 cells [2] = experiment: Cellular uptake of QD-dendritic peptide bioconjugates (fluorescence/confocal imaging); assay type: cell-based, African green monkey; conditions: 4 h incubation, 100 nM QD, 5 peptides/QD
Protocol: COS-1 cells were incubated for 4 h with 150 μL of a 100 nM solution of QDs assembled with the (Arg9)1-16 peptide series at ratio of 5/QD. This ratio was chosen since it represents a value where stochastic assembly events are minimized and correlates with ratios used in the DLS and SPR analysis. Cells were then incubated with the Transferrin Alexa647 endosomal marker for another hour prior to washing and processing which included counterstaining with the DAPI nuclear dye as described in the Methods section. FIGS. 4A through 4G present representative micrographs collected from these samples as projections of confocal stacks and side profiles of the cells. […] The bright yellow PL also observed in these images reflects colocalization of the green QDs with the red Alexa647 marker and confirms that the QDs are located in the endolysosomal system with a primary perinuclear localization as expected following endosomal vesicular uptake.
Kinetics of Poly(Arg)1-16-mediated QD uptake into cells were next evaluated. For this, 150 μL of 100 nM QDs assembled with a ratio of 5 peptides/QD were exposed to COS-1 cells for fixed time periods of 0.5, 1, 4, 8 and 24 h. […] Some delivery trends are visible from a comparison across these images. […] The amount and brightness of QD labeling in the endosomes directly correlates with the increase in the dendritic poly(Arg) display on the QD surface. Additionally, as the cellular exposure time increases, the amount of QD uptake increases proportionally as well. The measured PL intensity per cell from these representative images is plotted in FIG. 5B highlighting the general trends. Although some variability was noted (most likely due to the inherent noisy background found in such gross cellular studies), replicate samples reproduced the same generalized trends of increased poly(Arg)n dendritic branching and increased cellular exposure time leading to increased bioconjugate uptake and PL intensity. […]

COS-1 cells [3] = experiment: Dendritic peptide-mediated delivery of cargo-decorated QDs; assay type: cell-based, African green monkey
From the text: Lastly, as proof of concept, tests were made of the ability of the dendritic peptides to facilitate QD delivery, when the QDs are decorated with additional “cargo.” For this, following initial attachment of the (Arg9)n peptides to the QDs, they were further assembled with one of three prototypical cargos, a dye-labeled peptide, a drug-labeled peptide and a fluorescent protein. FIG. 8B presents a series of representative images that highlight some of the results achieved using 520 nm emitting QDs functionalized with a zwitterionic compact ligand 4; this ligand was used as it still allows larger proteins access to the QD surface for (His)n-binding unlike PEG which can sterically preclude them. […] Analogous to the data shown above, peptides with higher (Arg9)n dendrimeric branching, use of higher ratios of peptide/QD, and longer delivery times each served to facilitate higher levels of QD-cargo conjugate uptake into the cells (data not shown).
CdSe/ZnS core/shell QDs with emission maxima centered at 550 nm were synthesized as described. These were rendered hydrophilic through cap exchange of the native hydrophobic ligands with polyethylene glycol-(average MW 750 Da) appended dihydrolipoic acid ligands terminating in methoxy groups (DHLA-PEG750-OMe, see FIG. 1B) as described. For cargo delivery experiments, 520 nm emitting QDs functionalized with a zwitterionic compact ligand 4 (CL4) were utilized.
Aliquots of African green monkey kidney fibroblast-like COS-1 cells (CRL-1650) from American Type Culture Collection (ATCC, Manassas, Va., USA) were cultured in Dulbecco's Modified Eagle's Medium (DMEM, ATCC) supplemented with 10% (v/v) heat-inactivated fetal bovine serum (ATCC) and 1% antibiotic/antimycotic at 37° C. in a humidified atmosphere containing 95% air/5% CO2. Aliquots were allowed to adhere to the culture flask and reach 80% confluency, usually within 3 to 4 days. The monolayer was harvested by washing once with PBS, once with calcium/magnesium-free PBS, and incubating the monolayer with trypsin until detachment from the culture flask (usually within 5 min). Cells were seeded at 1-2×10^4 cells/well in Lab-Tek 8-well chambered No. 1 borosilicate cover glass system (Nalge Nunc, Rochester N.Y., USA) that had been previously coated for at least 4 h with fibronectin (5 μg/mL, Life Technologies). Cells were allowed to adhere to the bottom of the wells by further culture overnight at 37° C. in 95% air/5% CO2 air. Following overnight culture, media was removed and washed with 100 μL of 25 mM HEPES supplemented with 1 mM sodium pyruvate. […]
For cargo delivery experiments, mCherry fluorescent protein was prepared as described in the literature. […] Cytotoxicity assays were determined using the Vybrant® MTT Cell Proliferation Assay Kit. […]

## [RRRRRRRRRFG]4-x-K′K′WP9G2H6 [(Arg9)4]
[1]
  HD (hydrodynamic diameter): 30.7 ± 2.0 nm

## [(RRRRRRRRRFG)-x-hex-P9G]2-K′WGH6 (peptide RRRRRRRRRFGPPPPPPPPPG; chain KWGHHHHHH) [(Arg9)2, generation 1 dendritic wedge peptide displaying two Arg9 motifs]
[1]
  HD (hydrodynamic diameter): 30 ± 1.4 nm

## [RRRRRRRRRFG]-x-hex-hex-WP9G2H6 (RRRRRRRRRFGWPPPPPPPPPGGHHHHHH; not fully specified (residue 11); also: oxime bond (x) between G11 and hexamine spacers) [(Arg9)1, functions as control]
[1]
  HD (hydrodynamic diameter): 26.7 ± 1.3 nm
COS-1 cells [2]
  QD uptake (QD PL in confocal micrographs): no appreciable QD uptake

## [RRRRRRRRRFG]16-x-K′K′K′K′WP9G2H6 [(Arg9)16]
[1]
  HD (hydrodynamic diameter): 32.7 ± 4.9 nm
COS-1 cells [2]
  QD uptake (QD PL in confocal micrographs): most intense QD PL

## [RRRRRRRRRFG]8-x-K′K′K′WP9G2H6 [(Arg9)8]
[1]
  HD (hydrodynamic diameter): 30.9 ± 1.4 nm
COS-1 cells [2]
  QD uptake (QD PL in confocal micrographs): most intense QD PL
COS-1 cells [3]; low valencies, short delivery times (data not shown)
  comparative performance in cargo delivery experiments: worked best
COS-1 cells [3]; ratio 0.5 peptide/QD, 1 h exposure, cargo MW ~50 kDa, 520 nm CL4 QDs
  delivery of QDs decorated with ~25 doxorubicin labeled peptides: allowed delivery
COS-1 cells [3]; ratio 1 peptide/QD, 1 h exposure, cargo MW ~850 kDa, 520 nm CL4 QDs
  delivery of ~30 mCherry per QD: allowed delivery
COS-1 cells [3]; ratio 1 peptide/QD, 2 h exposure, cargo MW ~100 kDa/QD, 520 nm CL4 QDs
  delivery of QDs decorated with ~30 Cy5 labeled peptides: facilitated delivery
